Data: article PMC7891710, “The narrow-spectrum anthelmintic oxantel is a potent agonist of a novel acetylcholine receptor subtype in whipworms” (PLoS Pathogens, 2021)

Columns and labels:
[1] = target: T1, Tsu-ACR-16-like receptor (O-AChR) (Trichuris suis, UniProt A0A890W0I7); assay: two-electrode voltage clamp in Xenopus oocytes, agonist dose-response; assay type: cell-based
T1 construct: full-length Tsu-ACR-16-like (GenBank MT386096), homomeric channel co-expressed with Asu-RIC-3 in Xenopus laevis oocytes
T1 sequence (A0A890W0I7 entry or part of it): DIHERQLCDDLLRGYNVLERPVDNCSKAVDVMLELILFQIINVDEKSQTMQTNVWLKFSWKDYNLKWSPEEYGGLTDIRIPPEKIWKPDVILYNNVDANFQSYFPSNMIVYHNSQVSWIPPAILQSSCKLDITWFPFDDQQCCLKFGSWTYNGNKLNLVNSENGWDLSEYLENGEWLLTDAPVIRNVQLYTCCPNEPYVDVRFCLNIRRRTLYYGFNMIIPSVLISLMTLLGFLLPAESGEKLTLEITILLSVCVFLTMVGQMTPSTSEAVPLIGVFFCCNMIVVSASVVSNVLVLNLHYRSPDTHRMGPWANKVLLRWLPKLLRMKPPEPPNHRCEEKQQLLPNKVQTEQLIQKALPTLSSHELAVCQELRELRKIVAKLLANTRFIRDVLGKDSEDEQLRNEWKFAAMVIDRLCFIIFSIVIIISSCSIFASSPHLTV

[2] = target: T1, Tsu-ACR-16-like receptor (O-AChR); assay: two-electrode voltage clamp in Xenopus oocytes, agonist dose-response (partial, Imax […]); assay type: cell-based

Structure (SMILES) | EC50 [1] | EC50 [2]
CC(=O)OCC[N+](C)(C)C [ACh, acetylcholine] | 14.5 µM | 
CN1CCCN=C1/C=C/c1cccc(O)c1 [oxa, oxantel] | 9.49 µM | 
CN1CCCN=C1/C=C/c1cccs1 [pyr, pyrantel] |  | 148 µM
